Holding throughout (format): cell-based
Test [1] concerns EpiSkin-LM 3-dimensional in-vitro human skin model. As to the kind of experiment: Gene expression test (DNA microarray, mRNA) on the EpiSkin-LM reconstructed 3D skin model. On the procedure: Gene expression tests were conducted on EpiSkin-LM™, a commercially available 3-dimensional in-vitro human skin model composed of normal human skin cells in a collagen matrix. Test samples contained either 0.5% or 1.0% of highly sustainable, high-purity MVL by weight in a phosphate-buffered saline (PBS) solution. Negative control samples contained PBS only.
Reconstructed 3D skin epidermal models (EpiSkin-LM™) were pre-incubated with 5 mL of maintenance medium for 24 hours per manufacturer instruction. 2 mL of the test samples or negative controls were applied on the top of the epidermis. The treated models were incubated for 24 hours. After incubation, the models were rinsed with PBS, then treated again with 2 mL test samples or the negative control and incubated an additional 24 hours.
After the second incubation, mRNA was extracted from the models by miRNeasy® Mini Kit (QIAGEN). mRNA expression level in the model was measured by a Genopal® DNA microarray chip. Modulation of gene expression level was expressed as the ratio of mRNA transcripts in the test-sample treated models to mRNA transcripts in the negative control models. Positive numbers indicated an increase in gene expression, and negative numbers indicated a decrease in gene expression relative to the negative control.

The test system of test [2] is normal human epidermal keratinocytes cells. As to the kind of experiment: Cortisol production test (conversion of cortisone to cortisol, Alpha LISA). The following applies: FIG. 13. As to the method: Impact of MVL on metabolism, specifically cortisol production, was conducted on keratinocytes. Generally, 11β-HSD1 (Hydroxysteroid Dehydrogenase Type 1) converts costisone to cortisol, which then induces stress response. Impact of MVL on conversion of cortisone to cortisol was evaluated. Cortisol production tests were conducted on normal human epidermal keratinocytes cells. […] Negative control samples contained PBS only. Cortisol production was subsequently measured via the Alpha LISA system.

Test [3] concerns normal human epidermal keratinocytes (NHEKs) cells. As to the kind of experiment: Hyaluronic acid level in medium (ELISA, normalized to protein level). The following applies: FIG. 15; for increase in hyaluronic acid levels: 48 hours, p<0.05. On the procedure:
Impact of MVL on hyaluronic acid, was conducted on keratinocytes. Hyaluronic acid is a crucial component of the skin. Impact of MVL on conversion of hyaluronic acid was evaluated. Hyaluronic acid tests were conducted on normal human epidermal keratinocytes (NHEKs) cells. Test samples contained 0-0.25% of highly sustainable, high-purity MVL by weight in a phosphate-buffered saline (PBS) solution. Negative control samples contained PBS only. Hyaluronic acid level in the medium was subsequently measured at 24 hours and 48 hours via ELISA and normalized to the protein level in the NHEK cells.
Background: ELISA stands for enzyme-linked immunosorbent assay.

[4] abbreviates: compositions containing 0.1 to 1.0 weight percent, human epithelial cells.

The record followed here is patent publication US12226379B2, “Highly sustainable compositions for modulation of gene expression in human skin, and methods of production thereof” (Visolis Technologies, Inc., priority 2022, dated 2025).

On to `C[C@@]1(O)CCOC(=O)C1` [MVL, R-mevalonolactone], for which the “decrease in gene expression level relative to negative control (MMP1, MMP2, MMP3, MMP7, MMP9, NFATC1, IL1A, IL1B, TNFA, SELE, SELL, EDN1, EDN2, EDN3, PTGS2 (COX2), POMC)” value in test [1] (1.0% by weight in PBS, two 24 h treatments, genes of extracellular matrix degradation, inflammation, skin pigmentation (FIGS. 6-8)) is given as “at least 10%”. In test [1] (setting [4]), the “decrease in expression of genes related to ECM degradation, inflammation and pigmentation” value is “at least 10%”; the “increase in expression of genes related to epithelial turnover, hyaluronic acid synthesis, barrier function and anti-aging elasticity” value was “at least 10%”. Also, the “conversion of cortisone to cortisol” value in test [2] (0.125-0.5% by weight, higher concentrations give larger decline in cortisol levels) was “potently modulates”. Moreover, the “reduction of cortisol production” value in test [2] (0.5% concentration in PBS with cortisone) is given as “over 15%”. Besides, the “increase in hyaluronic acid levels” value in test [3] (0.13% concentration) is recorded as “over 5%”. In addition, the hyaluronic acid levels result in test [3] (0.13-0.25% by weight, higher concentrations give higher hyaluronic acid levels) is listed as “potently modulates”. Moreover, in test [3] (0.25% concentration), the “increase in hyaluronic acid levels” value is given as “over 5%”.
